Measurements published in patent US5858667A, “Method for the enumeration of micronucleated erythrocyte populations with a single laser flow cytometer” (Litron Laboratories, priority 1996, dated 1999).
Where “and” joins values, the source holds several entries; their conditions need not be identical. Equal values may be shown once. Entries after “also recorded” stand apart in the source; their conditions may differ.

Tests used:
[1] = system: normochromatic erythrocytes; test: Flow cytometric micronucleus assay (FITC-anti-CD71/propidium iodide), normochromatic erythrocytes, MMS-treated mice; format: in vivo, male BALB/c mice; conditions: for Average Freq. (%) MN-NCE: average of 5 mice; for Freq. (%) MN-NCE / No. MN-NCE / No. NCE: individual mouse
Procedure: (§1) Optimum flow cytometer settings are extremely important in this process. The fluorescent signals of the stained micronucleated normochromatic erythrocyte and micronucleated reticulocyte populations should be clearly resolved from those of the normochromatic erythrocyte and reticulocyte cell populations. In accordance with the method of the present invention, the analyses described herein were carried out with a single laser flow cytometer (Fac Star^PLUS ™, Becton Dickenson). The 5 W argon ion laser was tuned to provide 488 nm excitation. Cells were passed through the laser at an average rate of 2,500-8,000 erythrocytes/second. One embodiment of the invention is to use a 20μ elliptical beam that is focused at the sample stream. The results and analyses described herein were obtained with said beam. As known to those skilled in the art, different beam shapes are also acceptable.
(§2) The flow cytometer is equipped with four photomultiplier tubes (PMTs) which are used to sense forward light scatter, side light scatter, red fluorescence signals, and green fluorescence signals. Proper filters must be placed before the green and red photomultiplier tubes. In accordance with the methods of the present invention, adequate fluorescent signals can be obtained if a 520 nm long pass filter and a 555 nm short pass filter is placed before the green PMT. In accordance with the methods of the present invention, a 580 nm long pass filter in front of the red PMT is desirable. This is a preferred configuration that allows optimal fluorescence detection. However, as known to those skilled in the art, other filter sets may be acceptable. The signals received by the PMTs and the light scatter photodiode are processed by an in-line computer and cell populations of interest are quantitated (see, e.g., FIG. 1) using software conventional to the art. The data may be acquired and processed as either logarithmic or linear signals. In one configuration of the invention, log data was acquired for the forward light scatter, side scatter, as well as red and green fluorescence peak height signals.
(§3) Erythrocytes were isolated by gating on forward and side light scatter parameters. The stop mode of each analysis was reached when 500,000 total erythrocytes were interrogated. A window was set up corresponding to cells low in both fluorescence due to the labelled antibody with binding specificity for a surface marker for erythroblasts/reticulocytes (e.g., anti-CD71 antibody) and fluorescence due to the nucleic acid staining dye (e.g., propidium iodide), such as for detecting normochromatic erythrocytes in the erythrocyte population. A second gate was used to define cells low in anti-CD71 fluorescence and high in propidium iodide fluorescence, such as for detecting micronucleated normochromatic erythrocytes in the erythrocyte population. Another region corresponding to cells which were high in anti-CD71 fluorescence and low in propidium iodide fluorescence, such as for detecting reticulocytes in the erythrocyte population. A fourth region corresponding to cells which were high in both anti-CD71 fluorescence and in propidium iodide fluorescence was defined for detecting micronucleated reticulocytes in the erythrocyte population. Having defined these regions, the frequency of reticulocytes, micronucleated reticulocytes, micronucleated normochromatic erythrocytes, and normochromatic erythrocytes were automatically determined by the flow cytometry software.
(§4) Propidium iodide and FITC have been employed to simultaneously label nucleic acids and cell surface antigens in human B-cell lymphomas (Kruth et al., 1981, Cancer Res. 41:4895-4899; Montecucco et al., 1985, Basic Appl. Histochem. 29:275-2821). In the method according to the present invention the combined use of a nucleic acid staining dye, such as propidium iodide, and FITC-antibody labeling is utilized to differentially stain micronucleated reticulocytes. […]

reticulocytes = test: Flow cytometric micronucleus assay (FITC-anti-CD71/propidium iodide), reticulocytes, MMS-treated mice; format: in vivo, male BALB/c mice; conditions: for Average Freq. (%) MN-RET: average of 5 mice; for Freq. (%) MN-RET / No. MN-RET / No. RET: individual mouse
Procedure: as §1, §2, §3, §4

micronuclei = conditions: previous observations, different methodologies; cited from earlier work
[2] = system: micronucleated polychromatic erythrocytes; conditions: administered 2 hours before clastogen exposure; cited from earlier work
[3] = 0-72 h after 100 mg MMS/kg i.p., in words

COS(C)(=O)=O [MMS, methyl methanesulfonate]
micronuclei frequency in the mature normochromatic erythrocyte population, time course [1, 3]: rise gradually over the course of the experiment; also recorded: rose slightly | Average Freq. (%) MN-NCE ([1]; 24 h after 100 mg MMS/kg i.p.): 0.26% | Freq. (%) MN-NCE ([1]; 24 h after 100 mg MMS/kg i.p.): 0.25% and 0.26% and 0.23% and 0.28% | No. MN-NCE ([1]; 24 h after 100 mg MMS/kg i.p.): 1244 and 1287 and 1145 and 1254 and 1391 | No. NCE ([1]; 24 h after 100 mg MMS/kg i.p.): 490949 and 490112 and 488089 and 487462 and 490011 | Average Freq. (%) MN-NCE ([1]; 40 h after 100 mg MMS/kg i.p.): 0.28% | Freq. (%) MN-NCE ([1]; 40 h after 100 mg MMS/kg i.p.): 0.29% and 0.26% and 0.24% and 0.30% | No. MN-NCE ([1]; 40 h after 100 mg MMS/kg i.p.): 1405 and 1285 and 1178 and 1445 and 1458 | No. NCE ([1]; 40 h after 100 mg MMS/kg i.p.): 490511 and 485301 and 486302 and 484237 and 492350 | Average Freq. (%) MN-NCE ([1]; 48 h after 100 mg MMS/kg i.p.): 0.30% | Freq. (%) MN-NCE ([1]; 48 h after 100 mg MMS/kg i.p.): 0.31% and 0.32% and 0.27% | No. MN-NCE ([1]; 48 h after 100 mg MMS/kg i.p.): 1515 and 1538 and 1298 and 1517 and 1339 | No. NCE ([1]; 48 h after 100 mg MMS/kg i.p.): 487164 and 481651 and 480648 and 476364 and 490250 | Average Freq. (%) MN-NCE ([1]; 72 h after 100 mg MMS/kg i.p.): 0.34% | Freq. (%) MN-NCE ([1]; 72 h after 100 mg MMS/kg i.p.): 0.34% and 0.36% and 0.35% and 0.33% | No. MN-NCE ([1]; 72 h after 100 mg MMS/kg i.p.): 1593 and 1573 and 1607 and 1628 and 1575 | No. NCE ([1]; 72 h after 100 mg MMS/kg i.p.): 473052 and 462539 and 450096 and 461882 and 475141 | frequency of micronucleated reticulocytes, time course (reticulocytes; [3]): rise sharply over the course of the first 40 hours; also recorded: rise and fall quickly | Average Freq. (%) MN-RET (reticulocytes; 24 h after 100 mg MMS/kg i.p.): 0.81% | Freq. (%) MN-RET (reticulocytes; 24 h after 100 mg MMS/kg i.p.): 0.54% and 0.93% and 0.69% and 1.31% and 0.58% | No. MN-RET (reticulocytes; 24 h after 100 mg MMS/kg i.p.): 46 and 88 and 80 and 162 and 55 | No. RET (reticulocytes; 24 h after 100 mg MMS/kg i.p.): 8531 and 9390 and 11532 and 12234 and 9391 | Average Freq. (%) MN-RET (reticulocytes; 40 h after 100 mg MMS/kg i.p.): 4.20% | Freq. (%) MN-RET (reticulocytes; 40 h after 100 mg MMS/kg i.p.): 4.41% and 4.18% and 4.89% and 3.81% and 3.72% | No. MN-RET (reticulocytes; 40 h after 100 mg MMS/kg i.p.): 386 and 592 and 652 and 581 and 262 | No. RET (reticulocytes; 40 h after 100 mg MMS/kg i.p.): 8373 and 13570 and 12679 and 14533 and 6785 | Average Freq. (%) MN-RET (reticulocytes; 48 h after 100 mg MMS/kg i.p.): 2.25% | Freq. (%) MN-RET (reticulocytes; 48 h after 100 mg MMS/kg i.p.): 2.92% and 2.09% and 2.10% and 1.86% and 2.29% | No. MN-RET (reticulocytes; 48 h after 100 mg MMS/kg i.p.): 355 and 366 and 396 and 431 and 211 | No. RET (reticulocytes; 48 h after 100 mg MMS/kg i.p.): 11794 and 17187 and 18484 and 22687 and 8990 | Average Freq. (%) MN-RET (reticulocytes; 72 h after 100 mg MMS/kg i.p.): 0.41% | Freq. (%) MN-RET (reticulocytes; 72 h after 100 mg MMS/kg i.p.): 0.43% and 0.40% and 0.46% and 0.34% | No. MN-RET (reticulocytes; 72 h after 100 mg MMS/kg i.p.): 112 and 147 and 224 and 150 and 82 | No. RET (reticulocytes; 72 h after 100 mg MMS/kg i.p.): 25838 and 36327 and 48913 and 36940 and 23744 | time of maximum response (micronuclei formation) (micronuclei): 36 h

chlorophyllin
effect on incidence of micronucleated polychromatic erythrocytes induced by gamma radiation [2]: reduced the incidence of micronucleated polychromatic erythrocytes
